The source of these data is publication PMC6797481, “Identification of an allosteric binding site on the human glycine transporter, GlyT2, for bioactive lipid analgesics” (eLife, 2019).

Positions count from the first letter of the chain named.

The target of assay [1] is T1, GlyT2 W563L mutant (Homo sapiens, UniProt Q9Y345, W563L).
T1 construct: expressed in transfected cells; host or cells: Xenopus laevis oocytes (cRNA injection)
T1 sequence (Q9Y345 1-797 W563L): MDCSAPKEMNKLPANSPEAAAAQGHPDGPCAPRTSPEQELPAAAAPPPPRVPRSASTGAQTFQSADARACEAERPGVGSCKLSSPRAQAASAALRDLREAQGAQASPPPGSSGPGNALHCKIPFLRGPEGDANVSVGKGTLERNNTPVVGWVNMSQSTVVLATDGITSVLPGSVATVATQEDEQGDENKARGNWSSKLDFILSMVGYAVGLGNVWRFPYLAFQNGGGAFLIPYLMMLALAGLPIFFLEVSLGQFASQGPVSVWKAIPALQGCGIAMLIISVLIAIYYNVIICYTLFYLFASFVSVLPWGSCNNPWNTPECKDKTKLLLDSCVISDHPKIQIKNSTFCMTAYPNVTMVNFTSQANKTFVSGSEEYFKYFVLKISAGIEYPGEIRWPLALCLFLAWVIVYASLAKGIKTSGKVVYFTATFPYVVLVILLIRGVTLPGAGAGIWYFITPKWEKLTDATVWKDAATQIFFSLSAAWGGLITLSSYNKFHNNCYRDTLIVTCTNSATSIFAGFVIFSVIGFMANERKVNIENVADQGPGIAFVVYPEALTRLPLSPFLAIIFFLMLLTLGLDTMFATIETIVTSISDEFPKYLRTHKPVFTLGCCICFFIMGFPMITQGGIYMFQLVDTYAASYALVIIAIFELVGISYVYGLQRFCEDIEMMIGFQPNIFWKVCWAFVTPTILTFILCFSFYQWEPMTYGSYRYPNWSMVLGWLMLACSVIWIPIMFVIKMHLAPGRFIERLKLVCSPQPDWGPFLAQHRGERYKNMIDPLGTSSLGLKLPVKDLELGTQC
The assay can be described thus: Glycine transport currents, two electrode voltage clamp, oocytes expressing GlyT2 W563L. It counts as cell-based. The following applies: for % Max. inhibition: mean ± SEM. The procedure: (§1) Glycine was first applied to establish maximal transport current.
(§2) Compounds were tested for inhibition of glycine transport on Xenopus laevis oocytes expressing mutant GlyT1 and GlyT2 transporters. n values are in brackets, with measurements taken from at least 2 batches of oocytes.

The target of assay [2] is T2, GlyT2 Y550L mutant (Homo sapiens, UniProt Q9Y345, Y550L).
T2 construct: expressed in transfected cells; host or cells: Xenopus laevis oocytes (cRNA injection)
T2 sequence (Q9Y345 1-797 Y550L): T1 sequence (Q9Y345 1-797 W563L) with Y550L, L563W
The assay can be described thus: Glycine transport currents, two electrode voltage clamp, oocytes expressing GlyT2 Y550L. The class given is cell-based. The following applies: for % Max. inhibition: mean ± SEM. On the procedure: as §1, §2

Assay [3] deals with T3, GlyT2 WT (Homo sapiens, UniProt Q9Y345).
T3 sequence (Q9Y345 1-797): T1 sequence (Q9Y345 1-797 W563L) with L563W
Also on record: expressed in transfected cells; host or cells: Xenopus laevis oocytes (cRNA injection). The note with it: cited from earlier work; for IC50 / GlyT2 % max. inhibition: WT GlyT2, previously published; for IC50: mean (95% CI); for GlyT2 % max. inhibition: mean ± SEM; for mechanism of inhibition: versus substrate glycine, ref Mostyn et al., 2019, Wiles et al., 2006.

[4] abbreviates: GlyT2 W563L, greater than maximum concentration applied (footnote a).
Where [5] appears, read: GlyT2 Y550L, greater than maximum concentration applied (footnote a).

`NCC(=O)O` [Glycine]: the EC50 was 4.9 ± 0.8 µM in assay [1] (glycine transport, GlyT2 W563L (TM8)) and 62.2 ± 11.4 µM in assay [2] (glycine transport, GlyT2 Y550L (EL4)).
With `CCCCC/C=C\C/C=C\C/C=C\C/C=C\CCCC(=O)NCC(=O)O` [N-arachidonyl Glycine, reference compound], in assay [3], the IC50 is 9.1 µM, the “GlyT2 % max. inhibition” value was 79.6 ± 2.1% and the mechanism of inhibition result was “not competitive”.
As for `CCCCCCCC/C=C\CCCCCCCC(=O)NCC(=O)O` [N-oleoyl Glycine, reference compound], the IC50 in assay [1] (GlyT2 W563L, mean (95% CI)) is 0.755 µM; in assay [2] (GlyT2 Y550L, mean (95% CI)) it was 0.829 µM; in assay [3], 0.5 µM. In addition, the “% Max. inhibition” value in assay [1] (GlyT2 W563L) was 46.6 ± 4.0 (p=0.0449) %; in assay [2] (GlyT2 Y550L), 34.8 ± 9.1 (p=0.0011) %. Further, the “GlyT2 % max. inhibition” value in assay [3] is reported as 66.8 ± 2.8%.
As for `CCCCCCCC/C=C\CCCCCCCC(=O)O[C@H](CC(=O)[O-])C[N+](C)(C)C` [oleoyl L-Carnitine, reference compound], the results for the IC50 in assay [1] (setting [4]), in assay [2] (setting [5]) and in assay [3] were above 3 µM, above 3 µM and 0.34 µM, respectively. The “% Max. inhibition” value in assay [1] (GlyT2 W563L) is listed as 34.7 ± 3.2 (p=0.0001) %; in assay [2] (GlyT2 Y550L), 17.3 ± 1.4 (p=0.0001) %. In addition, the “GlyT2 % max. inhibition” value in assay [3] was 71.5 ± 5.7%.
Consider `CCCCCCCC/C=C\CCCCCCCC(=O)N[C@@H](CC(=O)O)C(=O)O` [oleoyl l-Aspartate], for which the IC50 in assay [1] (GlyT2 W563L, mean (95% CI)) was 1.16 µM; in assay [2] (setting [5]), above 3 µM; in assay [3] it was 0.865 µM. Also, in assay [1] (GlyT2 W563L), the “% Max. inhibition” value is listed as 74.9 ± 7.5 (p=0.9965) %. In addition, the “% Max. inhibition (% inhibition at the highest concentration of inhibitor used)” value in assay [2] (GlyT2 Y550L, footnote b) is 7.0 ± 0.8^b (p=0.0001) %. Besides, the “GlyT2 % max. inhibition” value in assay [3] is listed as 76.7 ± 5.3%.
As for `CCCCCCCC/C=C\CCCCCCCC(=O)N[C@@H](CCCCN)C(=O)O` [oleoyl l-Lysine], the IC50 in assay [1] (GlyT2 W563L, mean (95% CI)) was 0.175 µM; in assay [2] (GlyT2 Y550L, mean (95% CI)), 0.21 µM. The “% Max. inhibition” value in assay [1] (GlyT2 W563L) is on record as 73.5 ± 3.3 (p=0.1479) %; in assay [2] (GlyT2 Y550L), 48.2 ± 4.1 (p=0.0001) %. In addition, in assay [3], the “GlyT2 % max. inhibition” value was 86.8 ± 2.4%. Further, the mechanism of inhibition result in assay [3] is reported as “not competitive”.
Consider `CCCCCCCC/C=C\CCCCCCCC(=O)N[C@@H](Cc1c[nH]c2ccccc12)C(=O)O` [oleoyl l-Tryptophan], for which the IC50 in assay [1] (setting [4]) and in assay [2] (setting [5]) was above 3 µM throughout. Besides, the “% Max. inhibition” value in assay [1] (GlyT2 W563L) was 42.9 ± 2.6 (p=0.0001) %; in assay [2] (GlyT2 Y550L), 16.5 ± 1.7 (p=0.0001) %. Further, the “GlyT2 % max. inhibition” value in assay [3] is listed as 86.2 ± 3.8%.
Regarding `CCCCCCCC/C=C\CCCCCCCC(=O)N[C@H](C(=O)O)C(C)C` [oleoyl l-Valine], in assay [1] (GlyT2 W563L, footnote b), the “% Max. inhibition (% inhibition at the highest concentration of inhibitor used)” value is recorded as 56.3 ± 9.1^b (p=0.5737) %. The IC50 in assay [1] (GlyT2 W563L, mean (95% CI)) is 7.51 µM; in assay [2] (GlyT2 Y550L, mean (95% CI)), 2.93 µM; in assay [3] it was 1.17 µM. In addition, in assay [2] (GlyT2 Y550L), the “% Max. inhibition” value is reported as 57.0 ± 5.1 (p=0.0028) %. For the same molecule, in assay [3], the “GlyT2 % max. inhibition” value was 90.9 ± 5.9%.
Regarding oleoyl d-Lysine, the IC50 in assay [1] (setting [4]) was above 3 µM; in assay [2] (setting [5]), above 3 µM; in assay [3], 0.0483 µM. Besides, the “% Max. inhibition” value in assay [1] (GlyT2 W563L) is 42.1 ± 7.7 (p=0.0017) %; in assay [2] (GlyT2 Y550L), 38.4 ± 10.0 (p=0.0010) %. The “GlyT2 % max. inhibition” value in assay [3] is given as 91.0 ± 1.9%.
